Patent publication US9199993B2, “8-azabicyclo[3.2.1]octyl-2-hydroxybenzamide compounds as mu opioid receptor antagonists” (THERAVANCE BIOPHARMA R&D IP, LLC, priority 2007, dated 2015)
pKi: −log10 of the molar value. Read-outs that look alike come from different tables or passages of the source.

Experiments:
human mu opioid receptor [1] = biological target: T1, human mu opioid receptor (Homo sapiens, UniProt P35372); assay: Radioligand binding assay on human mu opioid receptor
T1 construct: host or cells: CHO-K1
T1 sequence (P35372 whole entry): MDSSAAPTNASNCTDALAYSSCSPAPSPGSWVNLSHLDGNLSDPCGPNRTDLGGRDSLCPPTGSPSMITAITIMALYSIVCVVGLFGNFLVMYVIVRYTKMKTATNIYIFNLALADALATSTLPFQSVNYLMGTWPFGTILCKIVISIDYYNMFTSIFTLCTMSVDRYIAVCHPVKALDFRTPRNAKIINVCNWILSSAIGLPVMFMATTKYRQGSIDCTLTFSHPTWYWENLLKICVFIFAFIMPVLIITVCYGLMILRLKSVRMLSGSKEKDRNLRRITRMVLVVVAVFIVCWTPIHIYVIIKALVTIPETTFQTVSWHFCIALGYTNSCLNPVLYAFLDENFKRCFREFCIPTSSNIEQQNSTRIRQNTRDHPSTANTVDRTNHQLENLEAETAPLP

[2] = tested on: loperamide-induced delayed gastric emptying; assay: Rat gastric emptying assay (reversal of loperamide-induced delayed gastric emptying); format: in vivo; conditions: administered orally, loperamide 1 mg/kg s.c., gastric emptying model
human mu opioid receptor [3] = biological target: T1, human mu opioid receptor; assay: biochemical; conditions: read-out: intrinsic activity (IA), bound [35S]GTPγS relative to DAMGO (IA=100)

CCC(CC)CN(CCN1[C@@H]2CC[C@H]1C[C@@H](c1cccc(C(N)=O)c1O)C2)C(=O)[C@@H](O)CO [Example 1, 3-endo-(8-{2-[((S)-2,3-Dihydroxypropionyl)-(2-ethylbutyl)-amino]ethyl}-8-azabicyclo[3.2.1]oct-3-yl)-2-hydroxybenzamide]
pKi (human mu opioid receptor [1]): 10.00 | ID50, dose required for 50% reversal of the effects of loperamide [2]: 0.11 mg/kg | Emax (human mu opioid receptor [3]): -1%

CCC(CC)CN(CCN1[C@@H]2CC[C@H]1C[C@@H](c1cccc(C(N)=O)c1O)C2)C(=O)CO [Example 2, 3-endo-(8-2-[(2-Ethylbutyl)-(2-hydroxyacetyl)amino]-ethyl-8-azabicyclo[3.2.1]oct-3-yl)-2-hydroxybenzamide]
Ki (human mu opioid receptor [1]; displacement of [3H]-Diprenorphine 0.5 nM, CHO-K1 cell membranes, read-out: pKi at the human mu opioid receptor (converted)): 0.1 nM

NC(=O)c1cccc(C2CC3CCC(C2)N3CCN(CC2CCC(F)(F)CC2)C(=O)CO)c1O (stereo not drawn) [Example 4, 3-endo-(8-2-[(4,4-Difluorocyclohexylmethyl)-(2-hydroxyacetyl)-amino]ethyl-8-azabicyclo[3.2.1]oct-3-yl)-2-hydroxybenzamide]
ID50, dose required for 50% reversal of the effects of loperamide [2]: 0.014 mg/kg

CC(C)(C)CN(CCN1[C@@H]2CC[C@H]1C[C@@H](c1cccc(C(N)=O)c1O)C2)C(=O)[C@@H](O)CO [Example 6, 3-endo-(8-{2-[((S)-2,3-Dihydroxypropionyl)-(2,2-dimethylpropyl)amino]ethyl}-8-azabicyclo[3.2.1]oct-3-yl)-2-hydroxybenzamide]
pKi (human mu opioid receptor [1]): 9.60 | ID50, dose required for 50% reversal of the effects of loperamide [2]: 0.42 mg/kg | Emax (human mu opioid receptor [3]): 9%
